Source: patent US9371265B2, “Compositions and methods related to inhibitors of JAK kinase” (EP PHARMA, INC., priority 2012, dated 2016)

Legend:
[1] = target: BRAF (Homo sapiens, UniProt P15056); assay: Kinase panel: BRAF; format: biochemical; conditions: 10 μM EP009
Method: (§1) Achieving JAK3 selectivity remains a significant challenge in the development of new small molecules for the treatment of cancer and immune-derived diseases. As such, the inventors employed cell-based screening assays of small-molecule libraries based upon the chemical scaffold of the established JAK3 inhibitor NC1153 (Stepkowski et al., J Immunol. (2005), 175(7):4236-4246) EP009 (FIG. 2A) was selected as a lead compound due to improved intrinsic stability (>95% purity in various solvents at 37° C. for 24 hours; FIG. 3) and high-degree of JAK3 selectivity. To test JAK3 versus JAK2 specificity of EP009, the IL-2/JAK3-dependent Kit225, and IL-3/JAK2-dependent BaF/3 cell lines were used. Kit225 and BaF/3 cells growing in the presence of IL-2 or IL-3, respectively, were treated with ascending concentrations of EP009 for 12 hours and cellular JAK3 and JAK2 tyrosine phosphorylation levels detected by Western blot analysis (FIGS. 2B and 2C). Following densitometric analysis, EP009 was determined to dose-dependently reduce IL-2-mediated JAK3 tyrosine phosphorylation with a cellular 50% inhibitory concentration (IC50) between 10 and 20 μM (FIG. 2B). […] To globally evaluate specificity, the inhibitory activity of EP009 was measured against a panel of protein kinases distributed throughout the kinome using the scanEDGE profiling service (KINOMEscan). […]

[2] = target: MAP3K4 (Homo sapiens, UniProt Q9Y6R4); assay: Kinase panel: MAP3K4; format: biochemical; conditions: 10 μM EP009
Chain of MAP3K4 (Q9Y6R4 whole entry): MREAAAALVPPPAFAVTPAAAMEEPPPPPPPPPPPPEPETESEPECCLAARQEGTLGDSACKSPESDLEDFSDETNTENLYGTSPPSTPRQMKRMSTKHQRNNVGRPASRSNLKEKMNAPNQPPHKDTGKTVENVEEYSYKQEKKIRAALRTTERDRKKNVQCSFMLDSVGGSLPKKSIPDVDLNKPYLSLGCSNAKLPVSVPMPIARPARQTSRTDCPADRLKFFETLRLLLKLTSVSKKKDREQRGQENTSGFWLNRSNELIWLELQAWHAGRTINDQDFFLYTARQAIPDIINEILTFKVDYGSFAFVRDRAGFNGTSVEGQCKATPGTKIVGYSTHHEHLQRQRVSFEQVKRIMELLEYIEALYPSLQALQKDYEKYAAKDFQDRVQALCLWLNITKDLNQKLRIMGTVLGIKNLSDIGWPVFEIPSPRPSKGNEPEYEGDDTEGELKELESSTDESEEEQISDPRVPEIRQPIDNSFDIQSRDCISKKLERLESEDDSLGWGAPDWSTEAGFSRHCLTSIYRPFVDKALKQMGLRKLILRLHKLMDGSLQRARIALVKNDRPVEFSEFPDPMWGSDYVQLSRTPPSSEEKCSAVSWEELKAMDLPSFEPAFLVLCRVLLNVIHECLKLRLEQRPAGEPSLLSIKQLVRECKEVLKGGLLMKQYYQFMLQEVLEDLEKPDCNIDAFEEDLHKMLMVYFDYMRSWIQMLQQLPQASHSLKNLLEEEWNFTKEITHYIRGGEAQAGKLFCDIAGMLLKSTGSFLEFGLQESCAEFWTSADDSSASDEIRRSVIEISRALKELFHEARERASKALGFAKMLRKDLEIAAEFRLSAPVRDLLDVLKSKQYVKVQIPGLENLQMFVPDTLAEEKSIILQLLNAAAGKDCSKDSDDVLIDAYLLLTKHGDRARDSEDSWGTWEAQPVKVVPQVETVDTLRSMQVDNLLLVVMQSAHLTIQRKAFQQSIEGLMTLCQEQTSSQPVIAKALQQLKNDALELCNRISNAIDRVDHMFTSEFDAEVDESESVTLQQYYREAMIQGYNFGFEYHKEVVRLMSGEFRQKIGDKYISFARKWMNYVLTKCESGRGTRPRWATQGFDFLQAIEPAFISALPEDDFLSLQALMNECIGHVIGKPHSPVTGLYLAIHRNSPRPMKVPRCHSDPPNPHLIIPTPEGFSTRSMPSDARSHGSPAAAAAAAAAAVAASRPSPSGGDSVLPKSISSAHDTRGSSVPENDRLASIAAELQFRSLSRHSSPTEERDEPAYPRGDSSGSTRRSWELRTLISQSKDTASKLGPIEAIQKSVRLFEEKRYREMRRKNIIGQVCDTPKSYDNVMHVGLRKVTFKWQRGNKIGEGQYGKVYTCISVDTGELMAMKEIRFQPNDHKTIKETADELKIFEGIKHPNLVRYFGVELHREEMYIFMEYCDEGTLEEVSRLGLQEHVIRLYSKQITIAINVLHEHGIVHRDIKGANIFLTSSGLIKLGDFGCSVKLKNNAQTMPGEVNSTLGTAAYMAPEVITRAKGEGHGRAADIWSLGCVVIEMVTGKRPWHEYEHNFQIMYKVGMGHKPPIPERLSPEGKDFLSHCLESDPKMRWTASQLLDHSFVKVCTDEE
Method: as §1

[3] = target: DYRK1B (Homo sapiens, UniProt Q9Y463); assay: Kinase panel: DYRK1B; format: biochemical; conditions: 10 μM EP009
Chain of DYRK1B (Q9Y463 whole entry): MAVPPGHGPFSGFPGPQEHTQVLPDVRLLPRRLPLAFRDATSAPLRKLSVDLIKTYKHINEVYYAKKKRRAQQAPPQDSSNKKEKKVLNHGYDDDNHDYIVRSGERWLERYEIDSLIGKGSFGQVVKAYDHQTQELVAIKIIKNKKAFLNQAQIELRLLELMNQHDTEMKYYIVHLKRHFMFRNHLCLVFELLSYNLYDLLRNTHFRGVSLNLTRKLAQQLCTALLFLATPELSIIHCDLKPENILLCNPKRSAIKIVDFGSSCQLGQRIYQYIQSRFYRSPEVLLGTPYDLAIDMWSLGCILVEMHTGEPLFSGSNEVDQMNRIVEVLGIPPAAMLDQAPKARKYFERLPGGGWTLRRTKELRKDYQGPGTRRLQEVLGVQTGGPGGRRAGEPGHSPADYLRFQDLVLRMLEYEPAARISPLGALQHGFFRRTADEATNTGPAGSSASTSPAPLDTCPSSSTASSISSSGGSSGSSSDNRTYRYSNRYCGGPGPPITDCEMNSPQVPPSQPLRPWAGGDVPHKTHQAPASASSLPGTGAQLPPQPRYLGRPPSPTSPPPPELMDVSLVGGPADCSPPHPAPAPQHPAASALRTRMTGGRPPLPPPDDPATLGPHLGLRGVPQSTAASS
Method: as §1

[4] = tested on: IL-2/JAK3-dependent Kit225 cells; assay: Kit225 cell viability (MTS); format: cell-based, human
Method: FIGS. 2A-2F. […] (B) Kit225 or (C) BaF/3 cells cultured in the presence of IL-2 or IL-3, respectively, were treated with vehicle (PBS; lane a) or increasing amounts of EP009 (0-50 μM; lanes b-h) for 12 hours. Cells were then lysed, clarified, and immunoprecipitated (IP) with anti-JAK3 (α-JAK3) or anti-JAK2 (α-JAK2), and subjected to Western blot (WB) analysis with anti-phosphotyrosine (α-pY). Blots were stripped and reprobed with corresponding antibody to verify equivalent protein loading. (D) Immunopurified JAK3 was subjected to in vitro autokinase analysis after treatment with vehicle (DMSO; lanes a and b) or ascending concentrations of EP009 (0-10 μM; lanes c-f) for 1 hour at room temperature. […] (E) Kit225 or BaF/3 cells were cultured with increasing amounts of EP009 (0-10 μM) for 72 hours and cell viability measured with the MTS tetrazolium salt assay. Values represent mean absorbance (OD490-OD650 nm) normalized to vehicle (PBS) treated control cells, while error bars represent the standard deviation (n=3). (F) HEK293, HEPG2, or naïve primary human PBMCs were cultured with increasing amounts of EP009 (0-10 μM) for 72 hours and cell viability measured with the MTS tetrazolium salt assay. Values represent mean absorbance (OD490-OD650 nm) normalized to vehicle (PBS) treated control cells, while error bars represent the standard deviation (n=3). […]

[5] = target: SRPK3 (Homo sapiens, UniProt Q9UPE1); assay: Kinase panel: SRPK3; format: biochemical; conditions: 10 μM EP009
Chain of SRPK3 (Q9UPE1 whole entry): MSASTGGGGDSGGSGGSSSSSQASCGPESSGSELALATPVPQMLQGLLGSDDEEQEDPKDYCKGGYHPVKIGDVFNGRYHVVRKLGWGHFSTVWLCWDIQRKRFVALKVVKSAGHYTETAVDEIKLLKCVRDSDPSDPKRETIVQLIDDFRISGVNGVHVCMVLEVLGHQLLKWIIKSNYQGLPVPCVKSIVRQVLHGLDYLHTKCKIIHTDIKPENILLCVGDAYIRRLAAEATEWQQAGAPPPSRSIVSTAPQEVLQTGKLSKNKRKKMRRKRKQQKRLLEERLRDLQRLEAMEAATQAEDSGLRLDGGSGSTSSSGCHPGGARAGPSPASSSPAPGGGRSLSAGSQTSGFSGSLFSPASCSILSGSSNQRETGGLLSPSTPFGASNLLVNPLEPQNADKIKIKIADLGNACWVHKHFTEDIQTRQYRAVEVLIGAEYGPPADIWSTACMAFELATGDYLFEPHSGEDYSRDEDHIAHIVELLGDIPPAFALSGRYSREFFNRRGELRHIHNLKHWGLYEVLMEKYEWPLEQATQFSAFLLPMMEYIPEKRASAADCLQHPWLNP
Method: as §1

[6] = tested on: p70 S6 kinase; assay: Phospho-p70 S6 kinase in SU-DHL-1 cells (Luminex multiplex); format: cell-based, human; conditions: 24 hours
Method: FIGS. 8A-8F. Effect of EP009 on ALCL cells is mediated through selective activation of ERK1/2 and JNK1/2 stress signaling pathways, and inhibition of p70 S6 kinase growth signaling pathways. SU-DHL-1 cells were treated with vehicle (PBS) or increasing amounts of EP009 (0-50 μM) for 24 hours. Cells were then lysed, clarified, and subjected to Luminex multiplex analysis to detect phosphorylated (A) ERK1/2, (B) JNK1/2, (C) p70 S6 kinase, (D) IκBα, (E) CREB, and (F) p38. Values represent mean fluorescence intensity (MFI) normalized to corresponding GAPDH MFI, while error bars represent the standard deviation (n=2). Representative data from two independent experiments are shown. Statistical significance was determined using Student's t-test. (*, p<0.05).
The MILLIPLEX MAP 8-plex Multi-Pathway Signaling Phosphoprotein kit (Millipore) was used to detect phosphorylated ERK1/2 (Thr185/Tyr187), STAT3 (Ser727), JNK1/2 (Thr183/Tyr185), p70 S6 kinase (Thr412), IκBα (Ser32), STAT5A/B (Tyr694/699), CREB (Ser133), and p38 (Thr180/Tyr182). The MILLIPLEX MAP 5-plex STAT Phosphoprotein kit (Millipore) was used to detect phosphorylated STAT1 (Tyr701), STAT2 (Tyr690), STAT3 (Tyr705), STAT5A/B (Tyr694/699), and STAT6 (Tyr641). The MILLIPLEX MAP Human Apoptosis 3-plex kit (Millipore) was used to detect cleaved PARP, cleaved Caspase 3, and total GAPDH for protein normalization.

[7] = target: PIM1 (Homo sapiens, UniProt P11309); assay: Kinase panel: PIM1; format: biochemical; conditions: 10 μM EP009
Chain of PIM1 (P11309 whole entry): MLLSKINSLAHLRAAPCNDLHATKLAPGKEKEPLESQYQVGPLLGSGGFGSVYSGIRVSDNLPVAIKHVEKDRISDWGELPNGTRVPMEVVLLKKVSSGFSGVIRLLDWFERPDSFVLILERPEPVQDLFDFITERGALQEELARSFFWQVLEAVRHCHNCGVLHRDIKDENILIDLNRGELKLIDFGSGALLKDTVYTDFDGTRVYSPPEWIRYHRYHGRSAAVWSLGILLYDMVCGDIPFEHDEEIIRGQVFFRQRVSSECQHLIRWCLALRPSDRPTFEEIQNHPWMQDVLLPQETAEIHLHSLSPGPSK
Method: as §1

Chain of BRAF (P15056 whole entry): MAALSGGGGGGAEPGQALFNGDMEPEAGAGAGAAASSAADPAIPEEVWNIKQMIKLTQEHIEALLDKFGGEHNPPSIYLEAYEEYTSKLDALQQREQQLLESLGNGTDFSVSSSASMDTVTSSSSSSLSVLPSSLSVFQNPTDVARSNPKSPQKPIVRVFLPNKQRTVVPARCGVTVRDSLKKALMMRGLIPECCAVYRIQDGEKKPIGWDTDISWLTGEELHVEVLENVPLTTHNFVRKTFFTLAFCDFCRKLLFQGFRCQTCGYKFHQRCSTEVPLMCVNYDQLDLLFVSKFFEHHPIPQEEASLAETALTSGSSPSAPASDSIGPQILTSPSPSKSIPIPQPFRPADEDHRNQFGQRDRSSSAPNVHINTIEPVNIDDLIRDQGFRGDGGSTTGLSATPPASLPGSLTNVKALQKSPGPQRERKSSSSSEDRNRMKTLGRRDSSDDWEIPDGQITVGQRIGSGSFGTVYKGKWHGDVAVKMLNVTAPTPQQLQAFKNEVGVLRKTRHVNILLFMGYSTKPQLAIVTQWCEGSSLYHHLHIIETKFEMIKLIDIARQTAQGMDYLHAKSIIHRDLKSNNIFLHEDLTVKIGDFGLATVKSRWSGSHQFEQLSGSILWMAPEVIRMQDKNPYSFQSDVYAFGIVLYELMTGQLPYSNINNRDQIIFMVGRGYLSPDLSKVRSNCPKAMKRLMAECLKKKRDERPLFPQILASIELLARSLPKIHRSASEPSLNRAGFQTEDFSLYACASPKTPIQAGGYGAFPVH

With C=C1CCCCCCCCCC(CO)C1=O (centres unmarked) [EP009, 2-(Hydroxymethyl)-12-methylenecyclododecanone] the “Kinase Activity (% of Control)” value [1] was 72 % of Control, the “Kinase Activity (% of Control)” value [2] was 87 % of Control and the “Kinase Activity (% of Control)” value [3] was 100 % of Control. For the same compound, the “concentration resulting in maximal loss of Kit225 cell viability” value ([4]; 72 hours) was 7.5 to 10 µM, the cytotoxicity at 5 µM ([4]; Homo sapiens, Kit225, 5.0 μM EP009, 72 hours, read-out: reduction in cell viability) was 55% and the “Kinase Activity (% of Control)” value [5] was 100 % of Control. The “constitutive phosphorylation of p70 S6 kinase” value [6] was “decreased in a dose-dependent manner” and the “Kinase Activity (% of Control)” value [7] was 100 % of Control.
